Results published in BindingDB's records for doi:10.1111/cbdd.12207 (Nirma University, 2014).
pIC50: −log10 of the molar value.

Target: T1, Gag-Pol polyprotein [1148-1435] (Human immunodeficiency virus 1, UniProt P04585)
T1 construct: 1148-1435
Test: HIV-1 Integrase Assay
Protocol: HIV-1 integrase inhibitory activity of compounds were determined using strand transferase inhibitory assay.

Compound | pIC50
O=C(O)C(=O)CC(=O)c1cc(OCc2ccccc2)cc(OCc2ccccc2)c1 | 7.23
O=C(O)C(=O)CC(=O)c1c[nH]c2ccc(Cl)cc12 | 6.28
O=c1oc2ccccc2c(O)c1C1c2ccccc2Oc2c1c(=O)oc1ccccc21 (centres undefined) | 3.91
C=c1[nH]n(C(=O)c2ccc(Cl)cc2)c(=O)c1=Cc1ccc(O)cc1 | 3.53
O=C(NO)c1ccc2c(c1)CCN2Cc1ccc(F)cc1F [1-[(2,4-difluorophenyl)methyl]-N-hydroxy-2,3-dihydroindole-5-carboxamide (Compound 1)] | 4.08
O=C(NNC(=O)c1cccc(O)c1O)c1ccccc1O [2,3-dihydroxy-N'-(2-hydroxybenzoyl)benzohydrazide (Compound 17)] | 6.30
O=C1C(=O)c2ccccc2C(=O)C1=Cc1c(O)c(O)c2ccccc2c1O [2-hydroxy-3-[(3-hydroxy-1,4-dioxonaphthalen-2-yl)methyl]naphthalene-1,4-dione (Compound 10)] | 4.70
O=C(NNCc1ccccc1O)c1ccccc1O [2-hydroxy-N'-[(2-hydroxyphenyl)methyl]benzohydrazide (Compound 4)] | 6.15
Oc1ccccc1CNNCC(O)COc1ccccc1 (centres undefined) [2-{[2-(2-hydroxy-3-phenoxypropyl)hydrazin-1-yl]methyl}phenol (Compound 15)] | 3.70
O=C1c2ccccc2C(C2CCCCC2)C(=O)N1O (centres undefined) [4-cyclohexyl-2-hydroxy-4H-isoquinoline-1,3-dione (Compound 3)] | 5.87
Cn1c(=O)c(C(=O)O)c(O)c2cc(-c3ccc(F)cc3)ccc21 [6-(4-fluorophenyl)-4-hydroxy-1-methyl-2-oxoquinoline-3-carboxylic acid (Compound 6)] | 4.64
COc1cc2c(cc1OC)C(=O)N1CSCC1C(=O)S2 (centres undefined) [12,13-dimethoxy-5,9-dithia-3-azatricyclo[8.4.0.0 ,⁷]tetradeca-1(14),10,12-triene-2,8-dione (Compound 8)] | 3.48
O=C(O)C(=O)CC(=O)c1cn(Cc2ccc(F)cc2)c2ccc(F)cc2c1=O [(2Z)-4-{6-fluoro-1-[(4-fluorophenyl)methyl]-4-oxoquinolin-3-yl}-2-hydroxy-4-oxobut-2-enoic acid (Compound 9)] | 5.64
O=C1/C(=C\c2cccc(O)c2)C=NN1C(=O)c1ccccc1O [(4Z)-2-(2-hydroxybenzoyl)-4-[(3-hydroxyphenyl)methylidene]pyrazol-3-one (Compound 11)] | 5.13
O=C(NCc1cc2ccccc2s1)c1nc(-c2cccs2)nc(O)c1O [N-(1-benzothiophen-2-ylmethyl)-5,6-dihydroxy-2-(thiophen-2-yl)pyrimidine-4-carboxamide (Compound 12)] | 8.00
O=C(NCc1ccc(Cl)c(Cl)c1)c1nc(-c2cccs2)nc(O)c1O [N-[(3,4-dichlorophenyl)methyl]-5,6-dihydroxy-2-(thiophen-2-yl)pyrimidine-4-carboxamide (Compound 14)] | 8.00
O=C(Nc1ncnc2c1ncn2Cc1ccc(F)cc1)c1ccc2cccnc2c1O [N-{9-[(4-fluorophenyl)methyl]purin-6-yl}-8-hydroxyquinoline-7-carboxamide (Compound 20)] | 4.95
COC(=O)c1ccc2cc(CCc3ccc(O)c(O)c3)oc2c1 [methyl 2-[2-(3,4-dihydroxyphenyl)ethyl]-1-benzofuran-6-carboxylate (Compound 18)] | 4.36
COC(=O)c1ccc(CC(=O)c2cc(C=O)c(O)cc2C)c(C)c1O [methyl 4-[2-(5-formyl-4-hydroxy-2-methylphenyl)-2-oxoethyl]-2-hydroxy-3-methylbenzoate (Compound 5)] | 3.91
